In the assay the test system is protein kinase. Description: HTS ATP-utilizing enzyme assay, off-chip mobility-shift format (Caliper HTS 250). Type of assay: biochemical, human. Particulars: test compound 10 μM; for protein kinase against which the compound exhibits inhibitory activity (Table 3): active = activity greater than three-sigma from the mean of the predominately inactive population for that enzyme; for Kinase: kinase(s) for which the compound exhibits protein kinase inhibitory activity, active = greater than three-sigma from the mean activity of inactive compounds. The method in brief: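 Kinase reactions ran 2.5 h at 20 to 22 °C with test compound at 10 μM, in a HEPES pH 7.5 master buffer containing Triton X-100 and BSA. Peptide substrate and phosphorylated product separated by mobility shift; inhibition normalized to DMSO (0%) and EDTA (100%) controls, with three-sigma thresholds for hits.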

SMILES strings stand for the structures. Entries after “also recorded” stand apart in the source; their conditions may differ.

This is an account of results in patent US20050288347A1, “Certain triazole-based compounds, compositions, and uses thereof” (priority 2004, published 2005).

On to `CCOCCSc1nnc(-c2ccc(OC(F)(F)F)cc2)[nH]1` [3-(2-ethoxyethylthio)-5-(4-(trifluoromethoxy)phenyl)-4H-1,2,4-triazole], for which the “protein kinase against which the compound exhibits inhibitory activity (Table 3)” value is on record as “AURORA-A; also recorded: GSK3-β”.

Turning to `CCOCCSc1nnc(-c2cccs2)[nH]1` [3-(2-ethoxyethylthio)-5-(thiophen-2-yl)-4H-1,2,4-triazole], the “protein kinase against which the compound exhibits inhibitory activity (Table 3)” value was “AURORA-A; also recorded: DYRK2; also recorded: GSK3-β”. The same measure, in the same setting: next, `CCOCCSc1nnc(-c2ccccc2)[nH]1` [3-(2-ethoxyethylthio)-5-phenyl-4H-1,2,4-triazole]: 3-(2-ethoxyethylthio)-5-phenyl-4H-1,2,4-triazole AURORA-A and FLT-3 and DYRK2.

As for `COCCSc1nnc(-c2ccc(OC)cc2)n1-c1ccccc1` [3-(2-methoxyethylthio)-5-(4-methoxyphenyl)-4-phenyl-4H-1,2,4-triazole], the “protein kinase against which the compound exhibits inhibitory activity (Table 3)” value was “SYK and INSR and PRAK”. On the same count and under the same terms, next, `CCOCCSc1nnc(-c2ccc(Cl)c(Cl)c2)[nH]1` [3-(3,4-dichlorophenyl)-5-(2-ethoxyethylthio)-4H-1,2,4-triazole]: “AURORA-A; also recorded: GSK3-β; also recorded: GSK3-α”.

With `CS(=O)(=O)c1ccc(CSc2nnc(-c3ccc(Cl)c(Cl)c3)[nH]2)cc1` [3-(3,4-dichlorophenyl)-5-(4-(methylsulfonyl)benzylthio)-4H-1,2,4-triazole], the “protein kinase against which the compound exhibits inhibitory activity (Table 3)” value is recorded as “AURORA-A; also recorded: FLT-3”. The same measure, in the same setting: as for `Clc1ccccc1CSc1nncn1-c1cccnc1` [3-(3-(2-chlorobenzylthio)-4H-1,2,4-triazol-4-yl)pyridine], the entry is “PDGFRR-α”; as for `FC(F)(F)c1cccc(-c2nnc(SCc3cccc(I)c3)[nH]2)c1` [3-(3-iodobenzylthio)-5-(3-(trifluoromethyl)phenyl)-4H-1,2,4-triazole], “CHEK2”. As to `COc1ccc(-c2nnc(SCc3cccc(I)c3)[nH]2)cc1` [3-(3-iodobenzylthio)-5-(4-methoxyphenyl)-4H-1,2,4-triazole], the “protein kinase against which the compound exhibits inhibitory activity (Table 3)” value was “AURORA-A”. Still for that read-out and setting: as for `Cc1nnc(SCc2cccc(I)c2)[nH]1` [3-(3-iodobenzylthio)-5-methyl-4H-1,2,4-triazole], the entry is “AURORA-A; also recorded: GSK3-α; also recorded: DYRK2”. Still for that read-out and setting: next, `Ic1cccc(CSc2nnc(-c3ccccc3)[nH]2)c1` [3-(3-iodobenzylthio)-5-phenyl-4H-1,2,4-triazole]: “AURORA-A; also recorded: c-TAK1”. Turning to `Cc1ccc(-c2nnc(SCCC(=O)O)n2-c2ccc(C)cc2)cc1` [3-(4,5-dip-tolyl-4H-1,2,4-triazol-3-ylthio)propanoic acid], the “protein kinase against which the compound exhibits inhibitory activity (Table 3)” value was “DAPK1”. For `Oc1cc2ccccc2cc1-c1nnc(S)n1Cc1ccco1` [3-(4-(furan-2-ylmethyl)-5-mercapto-4H-1,2,4-triazol-3-yl)naphthalen-2-ol], the Kinase result is recorded as “AURORA-A”. Still for that read-out and setting: as for `C=CCn1c(S)nnc1-c1cc2ccccc2cc1O` [3-(4-allyl-5-mercapto-4H-1,2,4-triazol-3-yl)naphthalen-2-ol], the entry is “MSK1”.

Consider `O=C(O)CCSc1nnc(-c2ccc(O)cc2)n1Cc1ccccc1` [3-(4-benzyl-5-(4-hydroxyphenyl)-4H-1,2,4-triazol-3-ylthio)propanoic acid], for which the “protein kinase against which the compound exhibits inhibitory activity (Table 3)” value is listed as “GSK3-β; also recorded: GSK3-α”. Still for that read-out and setting: next, `COc1ccc(-c2nnc(SCc3ccc(Cl)cc3)n2-c2ccccc2)cc1OC` [3-(4-chlorobenzylthio)-5-(3,4-dimethoxyphenyl)-4-phenyl-4H-1,2,4-triazole]: “CDK1”; `Cn1c(SCc2ccc(Cl)c(Cl)c2)nnc1-c1ccc(Cl)cc1` [3-(4-chlorophenyl)-5-(3,4-dichlorobenzylthio)-4-methyl-4H-1,2,4-triazole]: “PRAK and FYN”. As for `CCn1c(S)nnc1-c1cc2ccccc2cc1O` [3-(4-ethyl-5-mercapto-4H-1,2,4-triazol-3-yl)naphthalen-2-ol], the Kinase entry was “AURORA-A”. As to `Fc1ccc(CSc2nnc(-c3ccc(OC(F)(F)F)cc3)[nH]2)cc1` [3-(4-fluorobenzylthio)-5-(4-(trifluoromethoxy)phenyl)-4H-1,2,4-triazole], the “protein kinase against which the compound exhibits inhibitory activity (Table 3)” value is on record as “FLT-3; also recorded: AURORA-A”. The same measure, in the same setting: next, `Fc1ccc(CSc2nnc(-c3cccs3)[nH]2)cc1` [3-(4-fluorobenzylthio)-5-(thiophen-2-yl)-4H-1,2,4-triazole]: “AURORA-A; also recorded: FLT-3; also recorded: DYRK2”. Same read-out and setting: next, `COc1ccc(Cc2nnc(SCc3cccc4ccccc34)[nH]2)cc1` [3-(4-methoxybenzyl)-5-(naphthalen-1-ylmethylthio)-4H-1,2,4-triazole]: “AURORA-A”; `COc1ccc(-c2nnc(SCc3ccc(S(C)(=O)=O)cc3)[nH]2)cc1` [3-(4-methoxyphenyl)-5-(4-(methylsulfonyl)benzylthio)-4H-1,2,4-triazole]: “FLT-3”; `O=[N+]([O-])c1ccc(CSc2nnc[nH]2)cc1` [3-(4-nitrobenzylthio)-4H-1,2,4-triazole]: “MSK2 and SRC”. Take `O=C(O)CCSc1nnc(-c2cccnc2)n1-c1ccccc1` [3-(4-phenyl-5-(pyridin-3-yl)-4H-1,2,4-triazol-3-ylthio)propanoic acid]: the “protein kinase against which the compound exhibits inhibitory activity (Table 3)” value was “AURORA-A”. The same measure, in the same setting: as for `COCCCn1c(C)nnc1SCc1ccc(C(C)(C)C)cc1` [3-(4-tert-butylbenzylthio)-4-(3-methoxypropyl)-5-methyl-4H-1,2,4-triazole], the entry is “MAPKALPK-2 and AKT1”; as for `CCOCCSc1nnc(-c2cccnc2)[nH]1` [3-(5-(2-ethoxyethylthio)-4H-1,2,4-triazol-3-yl)pyridine], “AURORA-A”; as for `OCC(O)CSc1nnc(-c2cccc(C(F)(F)F)c2)[nH]1` (centres unmarked) [3-(5-(3-(trifluoromethyl)phenyl)-4H-1,2,4-triazol-3-ylthio)propane-1,2-diol], “AURORA-A; also recorded: FLT-3; also recorded: CHEK2”. `OCC(O)CSc1nnc(-c2cccc(Cl)c2)[nH]1` (centres unmarked) [3-(5-(3-chlorophenyl)-4H-1,2,4-triazol-3-ylthio)propane-1,2-diol]: the “protein kinase against which the compound exhibits inhibitory activity (Table 3)” value is “AURORA-A; also recorded: FLT-3; also recorded: CHEK2”. The same measure, in the same setting: as for `Cn1c(SCc2ccc(Cl)cc2)nnc1-c1cccnc1` [3-(5-(4-chlorobenzylthio)-4-methyl-4H-1,2,4-triazol-3-yl)pyridine], the entry is “CHEK2”; as for `COc1ccc(-c2nnc(SCC(O)CO)[nH]2)cc1` (centres unmarked) [3-(5-(4-methoxyphenyl)-4H-1,2,4-triazol-3-ylthio)propane-1,2-diol], “AURORA-A; also recorded: FLT-3; also recorded: DYRK2”; as for `O=[N+]([O-])c1ccc(-c2nnc(SCC(O)CO)[nH]2)cc1` (centres unmarked) [3-(5-(4-nitrophenyl)-4H-1,2,4-triazol-3-ylthio)propane-1,2-diol], “AURORA-A; also recorded: FLT-3; also recorded: DYRK2”. Turning to `CCn1c(SCc2ccc(C(C)(C)C)cc2)nnc1-c1cccnc1` [3-(5-(4-tert-butylbenzylthio)-4-ethyl-4H-1,2,4-triazol-3-yl)pyridine], the “protein kinase against which the compound exhibits inhibitory activity (Table 3)” value is reported as “MAPKAPK-2”. As for `Cn1c(SCc2ccc(C(C)(C)C)cc2)nnc1-c1cccnc1` [3-(5-(4-tert-butylbenzylthio)-4-methyl-4H-1,2,4-triazol-3-yl)pyridine], the “protein kinase against which the compound exhibits inhibitory activity (Table 3)” value is “PDGFRR-α”. Same read-out and setting: next, `c1cncc(-c2nnc(SCC3CCCO3)[nH]2)c1` (centres unmarked) [3-(5-((tetrahydrofuran-2-yl)methylthio)-4H-1,2,4-triazol-3-yl)pyridine]: “AURORA-A”. Still for that read-out and setting: as for `Cc1ccc(-n2c(SCc3ccccc3)nnc2-c2cccnc2)cc1` [3-(5-(benzylthio)-4-p-tolyl-4H-1,2,4-triazol-3-yl)pyridine], the entry is “AURORA-A”; as for `c1ccc(CCn2c(SCc3ccccc3)nnc2-c2cccnc2)cc1` [3-(5-(benzylthio)-4-phenethyl-4H-1,2,4-triazol-3-yl)pyridine], “MSK1”.

With `c1cncc(-c2nnc(SCC3CC3)[nH]2)c1` [3-(5-(cyclopropylmethylthio)-4H-1,2,4-triazol-3-yl)pyridine], the “protein kinase against which the compound exhibits inhibitory activity (Table 3)” value is given as “FLT-3; also recorded: AURORA-A”.

For the molecule `OCC(O)CSc1nnc(-c2cccnc2)[nH]1` (centres unmarked) [3-(5-(pyridin-3-yl)-4H-1,2,4-triazol-3-ylthio)propane-1,2-diol], the “protein kinase against which the compound exhibits inhibitory activity (Table 3)” value is “AURORA-A”. In the case of `COCCn1c(S)nnc1-c1cc2ccccc2cc1O` [3-(5-mercapto-4-(2-methoxyethyl)-4H-1,2,4-triazol-3-yl)naphthalen-2-ol], the Kinase result was “AURORA-A”.

As for `CN(C)CCCSc1nnc(C(C)(C)C)[nH]1` [3-(5-tert-butyl-4H-1,2,4-triazol-3-ylthio)-N,N-dimethylpropan-1-amine], the “protein kinase against which the compound exhibits inhibitory activity (Table 3)” value is reported as “c-TAK1”. Same read-out and setting: as for `COc1cccc(OCc2nnc(SC)n2C)c1` [3-((3-methoxyphenoxy)methyl)-4-methyl-5-(methylthio)-4H-1,2,4-triazole], the entry is “AURORA-A”.
